How the values were obtained:
basophils = experiment: Basophil histamine release assay; type: cell-based; conditions: highest concentration, 10,000 nM
Procedure: Assessment of the effect of a compound of the invention on basophil function is tested using a conventional histamine release assay, generally in accordance with the method described in Miura et al., J. Immunol., 162:4198-206 (1999). Briefly, enriched basophils are preincubated with test compounds at several concentrations from 0.1 nM to 1,000 nM for 10 min at 37° C. Then, polyclonal goat antihuman IgE (0.1 μg/mL) or fMLP is added, and allowed to incubate for an additional 30 min. Histamine released into the supernatant is measured using an automated fluorometric technique.

PI3Kδ = PI3Kδ (Homo sapiens (Human), UniProt O00329); experiment: Biochemical assay of PI3K potency using 20 μM ATP (PI3Kδ); conditions: read-out: Delta IC50
Sequence of PI3Kδ (O00329 whole entry S253N): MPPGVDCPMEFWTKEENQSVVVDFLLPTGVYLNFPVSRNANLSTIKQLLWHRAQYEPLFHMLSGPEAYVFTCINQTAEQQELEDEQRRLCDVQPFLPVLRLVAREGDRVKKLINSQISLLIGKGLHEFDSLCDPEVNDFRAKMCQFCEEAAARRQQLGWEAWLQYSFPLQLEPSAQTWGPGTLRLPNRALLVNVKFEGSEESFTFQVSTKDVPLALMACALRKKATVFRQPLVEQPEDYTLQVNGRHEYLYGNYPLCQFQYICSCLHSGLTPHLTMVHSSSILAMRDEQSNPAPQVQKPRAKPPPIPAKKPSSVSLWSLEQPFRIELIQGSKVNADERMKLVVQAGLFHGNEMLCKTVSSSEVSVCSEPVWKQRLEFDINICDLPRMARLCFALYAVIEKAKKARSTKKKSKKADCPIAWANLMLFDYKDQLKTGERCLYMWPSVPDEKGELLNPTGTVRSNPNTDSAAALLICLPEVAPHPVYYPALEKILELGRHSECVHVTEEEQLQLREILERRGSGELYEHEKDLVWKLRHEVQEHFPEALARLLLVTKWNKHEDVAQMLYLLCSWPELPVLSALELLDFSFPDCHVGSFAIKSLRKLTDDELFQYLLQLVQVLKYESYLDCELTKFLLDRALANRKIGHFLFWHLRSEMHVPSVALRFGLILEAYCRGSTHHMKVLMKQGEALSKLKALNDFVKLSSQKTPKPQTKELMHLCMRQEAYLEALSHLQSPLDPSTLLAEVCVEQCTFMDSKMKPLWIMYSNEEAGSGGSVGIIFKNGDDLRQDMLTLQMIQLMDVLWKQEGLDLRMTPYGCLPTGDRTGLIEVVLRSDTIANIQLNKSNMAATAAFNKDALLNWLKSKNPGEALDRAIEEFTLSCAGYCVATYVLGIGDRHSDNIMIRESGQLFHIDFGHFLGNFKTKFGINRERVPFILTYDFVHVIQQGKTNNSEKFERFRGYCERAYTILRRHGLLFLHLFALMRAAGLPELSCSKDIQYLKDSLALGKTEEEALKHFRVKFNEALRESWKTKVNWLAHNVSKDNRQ
Sequence of PI3Kδ (P27986 whole entry partner): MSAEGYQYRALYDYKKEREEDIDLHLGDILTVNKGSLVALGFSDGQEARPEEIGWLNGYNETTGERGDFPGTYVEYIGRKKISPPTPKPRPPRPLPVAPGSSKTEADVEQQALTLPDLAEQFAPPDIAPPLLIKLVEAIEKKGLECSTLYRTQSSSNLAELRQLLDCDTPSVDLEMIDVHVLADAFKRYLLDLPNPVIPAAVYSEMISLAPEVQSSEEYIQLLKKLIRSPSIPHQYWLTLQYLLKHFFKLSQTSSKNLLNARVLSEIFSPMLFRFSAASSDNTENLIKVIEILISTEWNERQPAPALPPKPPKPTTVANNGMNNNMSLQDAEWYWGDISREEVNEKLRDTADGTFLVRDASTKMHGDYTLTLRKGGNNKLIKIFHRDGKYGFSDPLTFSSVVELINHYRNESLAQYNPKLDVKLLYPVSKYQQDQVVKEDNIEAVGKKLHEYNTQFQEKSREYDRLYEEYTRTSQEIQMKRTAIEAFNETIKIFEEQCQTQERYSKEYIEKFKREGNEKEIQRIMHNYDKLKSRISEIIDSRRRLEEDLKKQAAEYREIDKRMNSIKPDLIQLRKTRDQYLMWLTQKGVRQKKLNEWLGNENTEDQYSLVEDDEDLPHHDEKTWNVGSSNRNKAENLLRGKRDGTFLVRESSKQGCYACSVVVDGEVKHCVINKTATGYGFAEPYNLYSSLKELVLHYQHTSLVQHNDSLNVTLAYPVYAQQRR
From the text: (§1) Recombinant PI3K heterodimeric complexes consisting of a p110 catalytic subunit and a p85 regulatory subunit were overexpressed using the BAC-TO-BAC® HT baculovirus expression system (GIBCO/BRL), and then purified for use in biochemical assays. The four Class I PI 3-kinases were cloned into baculovirus vectors as follows:
p110δ: A FLAG®-tagged version of human p110δ (SEQ ID NOS: 1 and 2) (see Chantry et al., J. Biol. Chem., 272:19236-41 (1997)) was subcloned using standard recombinant DNA techniques into the BamH1-Xba1 site of the insect cell expression vector pFastbac HTb (Life Technologies, Gaithersburg, Md.), such that the clone was in frame with the His tag of the vector. The FLAG® system is described in U.S. Pat. Nos. 4,703,004; 4,782,137; 4,851,341; and 5,011,912, and reagents are available from Eastman Kodak Co.
(§2) Biochemical Assay using 20 μM ATP
Using the method described in Example 2, compounds of the invention were tested for inhibitory activity and potency against PI3Kδ, and for selectivity for PI3Kδ versus other Class I PI3K isozymes.
(§3) The initial selectivity assays were performed identically to the selectivity assay protocol in Example 2, except using 100 μL Ecoscint for radiolabel detection.
(§4) Subsequent selectivity assays were done similarly using the same 3× substrate stocks except they contained 0.05 mCi/mL γ[^32P]ATP and 3 mM PIP2. Subsequent selectivity assays also used the same 3× enzyme stocks, except they now contained 3 nM of any given PI3K isoform.
(§5) For all selectivity assays, the test compounds were weighed out and dissolved into 10-50 mM stocks in 100% DMSO (depending on their respective solubilities) and stored at −20° C. Compounds were thawed (to room temperature or 37° C.), diluted to 300 μM in water from which a 3-fold dilution series into water was done. From these dilutions, 20 μL was added into the assay wells alongside water blanks used for the enzyme (positive) control and the no enzyme (background) control. The remainder of the assay was performed essentially according to the selectivity assay protocol in Example 2.

PI3Kα = PI3Kα (Homo sapiens (Human), UniProt P42336); experiment: Biochemical assay of PI3K selectivity (PI3Kα); conditions: ratio of IC50 for PI3Kα relative to PI3Kδ
Sequence of PI3Kα (P42336 whole entry): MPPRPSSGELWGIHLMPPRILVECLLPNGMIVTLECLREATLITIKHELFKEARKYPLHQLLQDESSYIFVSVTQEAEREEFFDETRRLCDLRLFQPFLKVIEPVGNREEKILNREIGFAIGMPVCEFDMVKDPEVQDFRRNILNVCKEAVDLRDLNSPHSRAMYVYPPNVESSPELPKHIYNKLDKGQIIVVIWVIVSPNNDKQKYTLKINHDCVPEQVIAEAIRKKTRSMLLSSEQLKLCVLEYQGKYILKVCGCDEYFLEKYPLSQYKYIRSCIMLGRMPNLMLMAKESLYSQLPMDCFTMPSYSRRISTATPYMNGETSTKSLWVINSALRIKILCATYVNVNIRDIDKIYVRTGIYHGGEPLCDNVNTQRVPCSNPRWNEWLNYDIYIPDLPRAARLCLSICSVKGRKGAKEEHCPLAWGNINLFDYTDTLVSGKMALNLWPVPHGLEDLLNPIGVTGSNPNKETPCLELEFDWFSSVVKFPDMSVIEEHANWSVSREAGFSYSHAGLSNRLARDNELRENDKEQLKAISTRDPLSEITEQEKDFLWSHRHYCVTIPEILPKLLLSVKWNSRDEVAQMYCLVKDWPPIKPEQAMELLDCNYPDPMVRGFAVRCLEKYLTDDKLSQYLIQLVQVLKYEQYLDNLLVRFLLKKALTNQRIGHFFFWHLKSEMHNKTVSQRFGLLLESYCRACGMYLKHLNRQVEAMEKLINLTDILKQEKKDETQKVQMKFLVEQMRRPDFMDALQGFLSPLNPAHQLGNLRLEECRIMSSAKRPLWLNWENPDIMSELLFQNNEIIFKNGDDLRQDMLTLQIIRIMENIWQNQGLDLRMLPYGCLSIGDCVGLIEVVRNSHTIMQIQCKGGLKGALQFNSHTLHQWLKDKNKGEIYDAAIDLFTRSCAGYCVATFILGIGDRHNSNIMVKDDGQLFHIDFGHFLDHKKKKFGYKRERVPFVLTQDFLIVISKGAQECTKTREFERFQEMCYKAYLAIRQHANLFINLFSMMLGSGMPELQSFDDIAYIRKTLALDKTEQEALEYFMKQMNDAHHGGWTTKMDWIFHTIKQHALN
Sequence of PI3Kα (P27986 whole entry partner): as the sequence (P27986 whole entry partner) above
From the text: as §1
p110α: Similar to the method used for p110δ, described above, a FLAG®-tagged version of p110α (see Volinia et al., Genomics, 24(3):427-77 (1994)) was subcloned in BamH1-HindIII sites of pFastbac HTb (Life Technologies) such that the clone was in frame with the His tag of the vector.
as §2
(§6) Using the method described in Example 2, compounds of the invention were tested for inhibitory activity and potency against PI3Kδ, and for selectivity for PI3Kδ versus other Class I PI3K isozymes. In Table 1, IC50 values (μM) are given for PI3Kδ (“Delta”), and may be calculated for the other isoforms using the ratios of IC50 values discussed below. To illustrate selectivity of the compounds, the ratios of the IC50 values of the compounds for PI3Kα, PI3Kβ, and PI3Kγ relative to PI3Kδ are given, respectively, as “Alpha/Delta Ratio,” “Beta/Delta Ratio,” and “Gamma/Delta Ratio.”
as §3, §4, §5

PI3Kγ = PI3Kγ (Homo sapiens (Human), UniProt P48736); experiment: Biochemical assay of PI3K selectivity (PI3Kγ); conditions: ratio of IC50 for PI3Kγ relative to PI3Kδ
Sequence of PI3Kγ (P48736 whole entry): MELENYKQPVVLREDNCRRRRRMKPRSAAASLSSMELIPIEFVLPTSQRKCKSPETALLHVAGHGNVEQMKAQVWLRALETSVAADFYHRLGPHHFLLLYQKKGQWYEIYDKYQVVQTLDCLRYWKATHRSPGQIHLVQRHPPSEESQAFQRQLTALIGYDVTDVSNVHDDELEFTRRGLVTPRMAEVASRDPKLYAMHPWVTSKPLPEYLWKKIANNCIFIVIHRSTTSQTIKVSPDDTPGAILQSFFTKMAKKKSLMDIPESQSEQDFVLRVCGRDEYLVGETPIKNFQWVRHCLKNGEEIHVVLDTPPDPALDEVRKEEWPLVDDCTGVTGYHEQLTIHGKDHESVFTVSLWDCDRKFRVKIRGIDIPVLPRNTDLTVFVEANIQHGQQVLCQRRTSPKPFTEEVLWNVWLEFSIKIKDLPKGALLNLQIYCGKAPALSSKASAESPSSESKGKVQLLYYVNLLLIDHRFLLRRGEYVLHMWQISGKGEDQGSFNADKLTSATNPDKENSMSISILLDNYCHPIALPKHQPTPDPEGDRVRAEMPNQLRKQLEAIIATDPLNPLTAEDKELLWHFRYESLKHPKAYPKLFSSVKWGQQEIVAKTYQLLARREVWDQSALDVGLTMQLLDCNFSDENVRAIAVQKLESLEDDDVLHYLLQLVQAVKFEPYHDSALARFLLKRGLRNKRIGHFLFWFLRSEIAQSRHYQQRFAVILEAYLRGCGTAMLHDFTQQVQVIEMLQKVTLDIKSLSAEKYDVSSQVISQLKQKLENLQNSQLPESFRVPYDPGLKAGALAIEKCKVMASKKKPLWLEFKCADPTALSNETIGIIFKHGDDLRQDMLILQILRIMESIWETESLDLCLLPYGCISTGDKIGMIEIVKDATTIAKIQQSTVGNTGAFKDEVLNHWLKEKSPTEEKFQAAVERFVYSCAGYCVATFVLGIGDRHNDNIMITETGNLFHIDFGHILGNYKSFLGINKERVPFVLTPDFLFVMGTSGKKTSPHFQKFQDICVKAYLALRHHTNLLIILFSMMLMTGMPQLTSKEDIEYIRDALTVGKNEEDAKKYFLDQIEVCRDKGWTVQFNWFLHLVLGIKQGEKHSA
From the text: p110γ: The p110γ cDNA (see Stoyanov et al., Science, 269:690-93 (1995)) was amplified from a human Marathon Ready spleen cDNA library (Clontech) according to the manufacturer's protocol using the following primers: […]
Recombinant baculoviruses containing the above clones were generated using manufacturer's recommended protocol (Life Technologies). Baculoviruses expressing His-tagged p110α, p110β, or p110δ catalytic subunit and p85 subunit were coinfected into Sf21 insect cells. To enrich the heterodimeric enzyme complex, an excess amount of baculovirus expressing p85 subunit was infected, and the His-tagged p110 catalytic subunit complexed with p85 was purified on nickel affinity column. […] In an alternate approach, p101 can be cloned into baculovirus, to permit coexpression with its preferred binding partner p110γ.
as §2, §6, §3, §4, §5

PI3Kβ = PI3Kβ (Homo sapiens (Human), UniProt P42338); experiment: Biochemical assay of PI3K selectivity (PI3Kβ); conditions: ratio of IC50 for PI3Kβ relative to PI3Kδ
Sequence of PI3Kβ (P42338 2-1070): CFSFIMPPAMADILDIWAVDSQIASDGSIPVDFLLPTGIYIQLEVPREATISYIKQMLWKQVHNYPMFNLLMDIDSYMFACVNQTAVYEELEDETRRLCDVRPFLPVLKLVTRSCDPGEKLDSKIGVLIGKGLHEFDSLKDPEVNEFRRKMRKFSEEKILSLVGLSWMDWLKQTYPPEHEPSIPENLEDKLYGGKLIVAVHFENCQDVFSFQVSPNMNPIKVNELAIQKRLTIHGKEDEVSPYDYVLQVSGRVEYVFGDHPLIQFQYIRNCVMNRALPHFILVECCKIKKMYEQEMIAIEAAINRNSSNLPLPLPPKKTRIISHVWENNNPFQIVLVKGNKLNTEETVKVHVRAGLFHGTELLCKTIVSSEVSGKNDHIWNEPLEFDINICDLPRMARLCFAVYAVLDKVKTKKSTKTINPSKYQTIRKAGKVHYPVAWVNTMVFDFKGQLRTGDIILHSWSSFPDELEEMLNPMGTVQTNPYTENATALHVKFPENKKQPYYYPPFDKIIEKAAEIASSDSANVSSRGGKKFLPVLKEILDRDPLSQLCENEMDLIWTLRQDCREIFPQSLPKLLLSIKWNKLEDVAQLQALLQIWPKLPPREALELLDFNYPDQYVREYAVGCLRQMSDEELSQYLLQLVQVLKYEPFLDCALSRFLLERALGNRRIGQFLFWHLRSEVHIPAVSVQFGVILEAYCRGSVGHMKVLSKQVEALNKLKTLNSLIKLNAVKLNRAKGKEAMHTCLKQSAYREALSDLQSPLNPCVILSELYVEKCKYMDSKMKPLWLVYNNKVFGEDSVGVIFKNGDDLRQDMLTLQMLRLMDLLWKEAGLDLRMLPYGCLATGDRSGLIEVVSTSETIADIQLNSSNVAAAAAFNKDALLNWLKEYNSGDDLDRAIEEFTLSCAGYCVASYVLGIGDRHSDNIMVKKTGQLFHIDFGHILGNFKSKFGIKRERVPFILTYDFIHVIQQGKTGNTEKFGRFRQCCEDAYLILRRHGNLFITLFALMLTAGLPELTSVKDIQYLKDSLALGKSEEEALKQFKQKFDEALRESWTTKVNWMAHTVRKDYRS
Sequence of PI3Kβ (P27986 whole entry partner): as the sequence (P27986 whole entry partner) above
From the text: as §1
p110β: A p110β (see Hu et al., Mol. Cell. Biol., 13:7677-88 (1993)) clone was amplified from the human MARATHON® Ready spleen cDNA library (Clontech, Palo Alto Calif.) according to the manufacturer's protocol using the following primers: […]
as §2, §6, §3, §4, §5

human neutrophils (PMN) = experiment: Neutrophil (PMN) elastase release (fMLP-induced elastase exocytosis); type: cell-based
Procedure: Aliquots (8 mL) of heparinized blood from healthy volunteers are layered on 3 mL cushions of 7.3% FICOLL® (Sigma, St. Louis, Mo.) and 15.4% HYPAQUE® (Sigma) and centrifuged at 900 rpm for 30 min at room temperature in a table top centrifuge (Beckman). The neutrophil-rich band just above the FICOLL®-HYPAQUE® cushion is collected and washed with Hanks' balanced salt solution (HESS) containing 0.1% gelatin. Residual erythrocytes are removed by, hypotonic lysis with 0.2% NaCl. The neutrophil preparation is washed twice with HESS containing 0.1% gelatin and used immediately.
In addition to superoxide generation, activated neutrophils also respond by releasing several proteases that are responsible for the destruction of tissues and cartilage during inflammation. As an indication of protease release, the effect of present compound on elastase exocytosis is measured. Elastase exocytosis is quantitated by modification of the procedure described by Ossanna et al. (J. Clin. Invest., 77:1939-51 (1986)), as follows. Purified human neutrophils (0.2×10^6) (treated with either DMSO or a serial dilution of a present compound in DMSO) are stimulated with fMLP in PBS containing 0.01 mg/mL cytochalasin B, 1.0 μM sodium azide (NaN3), 5 μg/mL L-methionine and 1 μM fMLP for 90 min at 37° C. in a 96-well plate. At the end of the incubation period, the plate is centrifuged for 5 min at 1000 rpm, and 90 μL of the supernatant is transferred to 10 μL of 10 mM solution of an elastase substrate peptide, MeO-suc-Ala-Ala-Pro-Val-pNA, wherein MeO-suc=methoxy-succinyl; pNA=p-nitroanilide (Calbiochem, San Diego, Calif.). Absorbance at 410 nm is monitored for 2 hr in a 96-well plate reader. To measure the relative amounts of elastase excytosed, all absorbance values are normalized to the values without any inhibitor.
Using the methods described in Example 2, compounds of the invention were tested for inhibitory activity and potency in an assay of neutrophil (PMN) elastase release. In Table 1, the values shown are effective concentrations of the compound (EC50; μM).

Human B Lymphocyte = experiment: Human B lymphocyte assay; type: cell-based
Procedure: Heparinized blood (200 mL) from healthy volunteers is mixed with an equal volume of D-PBS, layered on 10×10 mL FICOLL-PAQUE® (Pharmacia), and centrifuged at 1600 rpm for 30 min at room temperature. Peripheral blood mononuclear cells (PBMC) are collected from the FICOLL®/serum interface, overlayed on 10 mL fetal bovine serum (FBS) and centrifuged at 800 rpm for 10 min to remove platelets. After washing, cells are incubated with DYNAL® Antibody Mix (B cell kit) (Dynal Corp., Lake Success, N.Y.) for 20 min at 4-8° C. Following the removal of unbound antibody, PBL are mixed with anti-mouse IgG coated magnetic beads (Dynal) for 20 min at 4-8° C. with gentle shaking followed by elimination of labeled non-B cells on the magnetic bead separator. This procedure is repeated once more. The B cells are resuspended in RPMI-1640 with 10% FBS, and kept on ice until further use.
To study antibody production, B cells are aliquoted at 50−75×10^3 cells/well into 96-well plate with or without inhibitor, to which IL-2 (100 U/mL) and PANSORBIN® (Calbiochem) Staphylococcus aureus cells (1:90,000) were added. Part of the media is removed after 24-36 hr, and fresh media (with or without inhibitor) and IL-2 is added. Cultures are incubated at 37° C., in the presence of a CO2 incubator for additional 7 days. Samples from each condition (in triplicate) are removed, and analyzed for IgG and IgM, as measured by ELISA. Briefly, IMMULON® 4 96-well plates are coated (50 μL/well) with either 150 ng/mL donkey antihuman IgG (H+L) (Jackson ImmunoResearch, West Grove Pa.), or 2 μg/mL donkey antihuman IgG+IgM (H+L) (Jackson ImmunoResearch) in bicarbonate buffer, and left overnight at 4° C. After washing three times with phosphate buffered saline containing 0.1% TWEEN®-80 (PBST) (350 μL/well), and blocking with 3% goat serum in PEST (100 μL/well) for 1 hr at room temperature, samples (100 μL/well) of B cell spent media diluted in PBST are added. […] Color development is stopped by H2SOa solution, and plates were read on an ELISA plate reader.

| Structure (SMILES) | inhibition at 10 µM (basophils) [%] | IC50 (PI3Kδ) [nM] | Alpha-Delta Ratio (PI3Kα) | Gamma-Delta Ratio (PI3Kγ) | Beta-Delta Ratio (PI3Kβ) | EC50 (human neutrophils (PMN)) [nM] | EC50 (Human B Lymphocyte) [nM] |
| --- | --- | --- | --- | --- | --- | --- | --- |
| O=c1cc(N2CCOCC2)oc2c(-c3ccccc3)cccc12 [LY294002] | ~100 | – | – | – | – | – | – |
| CCC(Nc1ncnc2[nH]cnc12)c1nc2cccc(C)c2c(=O)n1-c1cc(F)cc(F)c1 (stereo not drawn) [Compound 93, 3-(3,5-difluoro-phenyl)-5-methyl-2-[1-(9H-purin-6-ylamino)-propyl]-3H-quinazolin-4-one] | – | 26 | 721 | 62 | 94 | 584 | – |
| CC[C@H](Nc1ncnc2[nH]cnc12)c1nc2cccc(Cl)c2c(=O)n1-c1cc(F)cc(F)c1 [Compound 117, (S)-5-chloro-3-(3,5-difluoro-phenyl)-2-[1-(9H-purin-6-ylamino)-propyl]-3H-quinazolin-4-one] | – | 12 | 662 | 67 | 78 | 382 | 1.6 |
| CCC(Nc1ncnc2[nH]cnc12)c1nc2cccc(Cl)c2c(=O)n1-c1c(F)cccc1F (stereo not drawn) [Compound 174, 5-chloro-3-(2,6-difluoro-phenyl)-2-[1-(9H-purin-6-ylamino)-propyl]-3H-quinazolin-4-one] | – | 45 | 250 | 38 | 72 | 298 | 30.7 |
| CCC(Nc1ncnc2[nH]cnc12)c1nc2ccccc2c(=O)n1-c1ccccc1 (stereo not drawn) [Compound 98, 3-phenyl-2-[1-(9H-purin-6-ylamino)-propyl]-3H-quinazolin-4-one] | – | 16 | 608 | 66 | 74 | 84 | 4.6 |

From US8586597B2, “6-fluoro-3-phenyl-2-[1-(9H-purin-6-ylamino)ethyl]-3H-quinazolin-4-one as an inhibitor of human phosphatidylinositol 3-kinase delta” (ICOS Corporation, priority 2004, dated 2013)
